Results taken from article PMC6159918 (Peptides, 2018).
Like-named read-outs stand apart in the source and are kept apart here.

Tests used:
[1] = test system: NMBR; test: [3H]IP production, NMBR agonist/antagonist; format: cell-based, human
[2] = biological target: NMBR (Homo sapiens, UniProt P28336); test: [3H]IP production, NMBR agonist/antagonist; format: cell-based; details: Peptide #1 (10 nM) + PD 1 μM; NCI-H727 (carcinoid); control 143 ± 21
[3] = test system: GRPR; format: cell-based, human
[4] = biological target: T1, human BRS-3-receptor (Homo sapiens, UniProt P32247); test: [3H]-inositol phosphates; format: cell-based; details: for decrease in [3H]IP-production stimulated by MK-5046 / inhibition of [3H]IP-production caused by peptide #1: Bantag-1 100 nM; for decrease in [3H]IP-production stimulated by MK-5046: MK-5046 10 nM; for inhibition of [3H]IP-production caused by peptide #1: peptide #1 10 nM
T1 sequence (P32247 1-399): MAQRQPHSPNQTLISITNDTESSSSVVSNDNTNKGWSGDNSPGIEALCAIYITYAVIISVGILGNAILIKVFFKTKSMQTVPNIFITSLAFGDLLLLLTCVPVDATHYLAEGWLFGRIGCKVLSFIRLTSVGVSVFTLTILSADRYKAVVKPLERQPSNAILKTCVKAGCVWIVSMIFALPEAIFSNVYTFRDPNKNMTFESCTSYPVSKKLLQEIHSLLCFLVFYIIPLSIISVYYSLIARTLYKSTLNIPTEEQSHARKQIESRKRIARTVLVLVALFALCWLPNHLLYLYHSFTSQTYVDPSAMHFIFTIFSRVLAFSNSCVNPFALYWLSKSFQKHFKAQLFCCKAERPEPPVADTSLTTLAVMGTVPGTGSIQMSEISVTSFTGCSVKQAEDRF

[5] = biological target: T1, human BRS-3-receptor; test: Cytosolic Ca2+; format: cell-based

Sequence of NMBR (Homo sapiens, UniProt P28336) (P28336 whole entry): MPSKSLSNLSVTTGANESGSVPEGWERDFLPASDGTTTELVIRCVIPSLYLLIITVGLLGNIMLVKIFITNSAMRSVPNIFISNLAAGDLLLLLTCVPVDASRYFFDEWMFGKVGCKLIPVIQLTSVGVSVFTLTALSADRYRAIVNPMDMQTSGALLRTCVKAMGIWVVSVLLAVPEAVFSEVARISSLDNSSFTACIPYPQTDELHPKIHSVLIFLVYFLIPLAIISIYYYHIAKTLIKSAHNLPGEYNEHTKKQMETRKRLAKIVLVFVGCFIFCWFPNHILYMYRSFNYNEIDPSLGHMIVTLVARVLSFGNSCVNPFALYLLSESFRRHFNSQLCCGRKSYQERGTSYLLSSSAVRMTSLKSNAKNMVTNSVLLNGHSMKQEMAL

C[C@@](Cc1c[nH]c2ccccc12)(NC(=O)Nc1ccc([N+](=O)[O-])cc1)C(=O)NCC1(c2ccccn2)CCCCC1 [PD168368]
[3H]IP (DPM) ([1]; Peptide #1 (10 nM) + PD 1 μM, Balb-3T3 BRS-3 transfected, control 2487 ± 185): 15006 ± 769 DPM
[3H]IP (DPM) ([1]; Peptide #1 (10 nM) + PD 1 μM, NCI-H69 (SCLC), control 177 ± 27): 471 ± 121 DPM
[3H]IP (DPM) ([1]; Peptide #1 (10 nM) + PD 1 μM, NCI-N417 (SCLC), control 660 ± 87): 2176 ± 518 DPM
[3H]IP (DPM) [2]: 157 ± 48 DPM

gastrin-releasing peptide [GRP]
[3H]IP (DPM) ([3]; GRP 100 nM, Balb-3T3 BRS-3 transfected, control 2487 ± 185): 2519 ± 744 DPM
[3H]IP (DPM) ([3]; GRP 100 nM, NCI-N417 (SCLC), control 660 ± 87): 881 ± 204 DPM
[3H]IP (DPM) ([3]; GRP 1 μM, NCI-N417 (SCLC), control 660 ± 87): 724 ± 138 DPM
PLC activation in 4 cell-lines (NCI-H69, NCI-N417, NCI-H727, BRS-3/Balb) ([3]; GRP at 10 nM and 100 nM): activated PLC only in NCI-H727-cells

Boc-Phe-His-4-amino-5-cyclohexyl-2, 4, 5-trideoxypentonyl-Leu- (3-dimethylamino)benzyl amide-N-methyl ammonium trifluoroacetate [Bantag-1]
decrease in [3H]IP-production stimulated by MK-5046 ([4]; BRS-3/Balb-cells): 93%
decrease in [3H]IP-production stimulated by MK-5046 ([4]; NCI-H69): 81%
decrease in [3H]IP-production stimulated by MK-5046 ([4]; NCI-H727): 75%
decrease in [3H]IP-production stimulated by MK-5046 ([4]; NCI-N417): 99%
inhibition of [3H]IP-production caused by peptide #1 ([4]; BRS-3/Balb-cells): 82%
inhibition of [3H]IP-production caused by peptide #1 ([4]; NCI-H69-cells): 83%
inhibition of [3H]IP-production caused by peptide #1 ([4]; NCI-N417-cells): 68%
[3H]IP (DPM) ([4]; MK-5046 10 nM + Bantag 100 nM, Balb-3T3 BRS-3 transfected, control 2487 ± 185): 3697 ± 1064 DPM
[3H]IP (DPM) ([4]; MK-5046 10 nM + Bantag 100 nM, NCI-H69 (SCLC), control 177 ± 27): 256 ± 56 DPM
[3H]IP (DPM) ([4]; MK-5046 10 nM + Bantag 100 nM, NCI-H727 (carcinoid), control 143 ± 21): 215 ± 25 DPM
[3H]IP (DPM) ([4]; MK-5046 10 nM + Bantag 100 nM, NCI-N417 (SCLC), control 660 ± 87): 678 ± 82 DPM
[3H]IP (DPM) ([4]; Peptide #1 (10 nM) + Bantag 100 nM, NCI-H69 (SCLC), control 177 ± 27): 265 ± 35 DPM
[3H]IP (DPM) ([4]; Peptide #1 (10 nM) + Bantag 100 nM, NCI-H727 (carcinoid), control 143 ± 21): 176 ± 27 DPM
[3H]IP (DPM) ([4]; Peptide #1 (10 nM) + Bantag 100 nM, NCI-N417 (SCLC), control 660 ± 87): 1125 ± 154 DPM
inhibition of MK-5046 stimulated increases in cytosolic calcium ([5]; Bantag-1 1000 nM, two cell lines (NCI-H727, H782)): completely inhibited
inhibition of MK-5046 stimulation of increases in (Ca2+)i ([5]; NCI-82, NCI-H460 and NCI-H727 cells): inhibited

[D-Tyr^6, β-Ala^11, Phe^13, Nle^14]Bn- (6–14) [Peptide #1]
[3H]IP (DPM) ([4]; Peptide #1 10 nM, Balb-3T3 BRS-3 transfected, control 2487 ± 185): 16341 ± 1071 DPM
[3H]IP (DPM) ([4]; Peptide #1 10 nM, NCI-H69 (SCLC), control 177 ± 27): 680 ± 73 DPM
[3H]IP (DPM) ([4]; Peptide #1 10 nM, NCI-H727 (carcinoid), control 143 ± 21): 235 ± 25 DPM
[3H]IP (DPM) ([4]; Peptide #1 10 nM, NCI-N417 (SCLC), control 660 ± 87): 2131 ± 244 DPM

neuromedin B [NMB]
[3H]IP (DPM) ([1]; NMB 100 nM, Balb-3T3 BRS-3 transfected, control 2487 ± 185): 2697 ± 720 DPM
[3H]IP (DPM) ([1]; NMB 100 nM, NCI-H69 (SCLC), control 177 ± 27): 186 ± 20 DPM
[3H]IP (DPM) ([1]; NMB 100 nM, NCI-N417 (SCLC), control 660 ± 87): 706 ± 132 DPM
[3H]IP (DPM) ([1]; NMB 1 μM, Balb-3T3 BRS-3 transfected, control 2487 ± 185): 2652 ± 838 DPM
[3H]IP (DPM) ([1]; NMB 1 μM, NCI-H69 (SCLC), control 177 ± 27): 187 ± 37 DPM
[3H]IP (DPM) ([1]; NMB 1 μM, NCI-N417 (SCLC), control 660 ± 87): 707 ± 137 DPM
PLC activation in 4 cell-lines (NCI-H69, NCI-N417, NCI-H727, BRS-3/Balb) ([1]; NMB at 10 nM and 100 nM): activated PLC only in NCI-H727-cells

[D-Phe^6]Bombesin-(6–13)-methyl ester
[3H]IP (DPM) ([3]; Peptide #1 (10 nM) + ME 1 μM, Balb-3T3 BRS-3 transfected, control 2487 ± 185): 16107 ± 100 DPM
[3H]IP (DPM) ([3]; Peptide #1 (10 nM) + ME 1 μM, NCI-N417 (SCLC), control 660 ± 87): 2513 ± 662 DPM
